Several values for one entry are separate records, joined by “and”; a condition that tells them apart may be missing. Equal values may be shown once. Square brackets hold non-standard residues; d marks the D form. Peptide text beside a SMILES is read from it. Hyp = O=C(O)[C@@H]1C[C@@H](O)CN1; Orn = NCCC[C@H](N)C(=O)O
Molecular target: T1, recombinant human cGAS enzyme (hcGAS-ΔN, residues 147–522) (Homo sapiens, UniProt Q8N884)
T1 construct: N-terminally truncated human cGAS (hcGAS-ΔN, residues 147–522); 6xHis-SUMO (N, cleaved yes); made in house; host or cells: Escherichia coli BL21 (DE3)
T1 sequence (Q8N884 147-522, stated change not applied): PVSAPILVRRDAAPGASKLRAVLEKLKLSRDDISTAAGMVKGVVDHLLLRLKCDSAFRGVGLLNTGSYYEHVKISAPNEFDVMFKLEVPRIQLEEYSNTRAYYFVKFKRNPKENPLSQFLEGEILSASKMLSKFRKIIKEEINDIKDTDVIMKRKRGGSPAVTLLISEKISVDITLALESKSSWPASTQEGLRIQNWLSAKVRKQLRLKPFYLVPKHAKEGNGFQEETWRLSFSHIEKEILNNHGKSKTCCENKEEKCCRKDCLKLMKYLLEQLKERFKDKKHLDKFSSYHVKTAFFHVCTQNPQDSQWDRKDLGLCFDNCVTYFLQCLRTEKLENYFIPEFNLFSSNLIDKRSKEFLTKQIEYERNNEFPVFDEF
Experiment: RNA-based fluorescent biosensor assay of cGAS activity (2',3'-cGAMP formation), in vitro screening
Format: biochemical
Details: for inhibition at 20 µM / Inhibition %: peptides screened at 20 μM, Supplementary Table 1 / Fig. S5b; for inhibition at 20 µM: read-out: Inhibition %; for Remaining activity (%), Fig. 1a source data / remaining activity at 20 µM: 20 μM, replicate values; for remaining activity at 20 µM: read-out: Remaining activity (%), Fig. 1a source data
Text: To screen direct cGAS inhibitors targeting protein-DNA interface from our developed focused library of macrocyclic peptides, we applied an RNA-based fluorescent biosensor for 2’,3’-cGAMP to detect cGAS activity in vitro (Supplementary Fig. 1a)[49]. The formation of 2’,3’-cGAMP from ATP and GTP was catalyzed by recombinant human cGAS enzyme (hcGAS-ΔN, residues 147–522, Supplementary Fig. 1b) in the presence of ISD (interferon stimulatory DNA, a 45-bp dsDNA), which was readily quantified by the RNA-based fluorescent biosensor and was further confirmed by ion exchange chromatography (Supplementary Fig. 1c). […] Subsequently, a total of 90 macrocyclic peptides were screened at a concentration of 20 μM (Fig. 1a and Supplementary Fig. 1e), and 4 hits (XQ2, XQ8, XQ19, and XQ46) were obtained for further testing at a cut-off of 40% inhibition (Supplementary Table 1). To evaluate the inhibitory effect of the hits against cGAS in cells, we employed real-time quantitative PCR (qPCR) to examine mRNA levels of IFNΒ1 in THP1 cells. The reported cGAS inhibitor RU.521 was used as the positive control, and the non-active peptide XQ28 in the screening assay was used as the negative control. […] The inhibition of cGAS by these hits was further confirmed in the reporter cell line THP1-Lucia ISG (Invivogen) that expresses secreted luciferase induced by an IRF3-inducible ISG54 promoter (Fig. 1c). The discrepancy between the inhibitory effect of the hits in protein and cellular assays may be attributed to their different cellular permeability.
The high-throughput screening (HTS) experiments of cGAS activity are based on the method previously described. To initiate the enzyme reaction, ISD was added to the reaction solution (40 mM Tris-HCl, pH 7.5, 100 mM NaCl, 10 mM MgCl2) containing hcGAS-ΔN, ATP (Sangon Biotech, Cat# A600311) and GTP (Sangon Biotech, Cat# A620332) in a total volume of 20 ul with the final concentration of 0.5 μM, 1.5 μM, 1 mM, 1 mM, respectively, and incubated for 2 h at 37 °C. For HTS experiments, compounds were added to the same reaction conditions as described above with the final concentration of 20 μM. Z’ factors were calculated from three replicates in the 384-well plate.

Row | Compound | inhibition at 20 µM [%] | Remaining activity (%), Fig. 1a source data | remaining activity at 20 µM [%] | Inhibition % [%]
1 | CC(C)C[C@@H]1NC(=O)[C@H](CCCNC(=N)N)NC(=O)[C@H](C(C)C)NC(=O)[C@@H]2CCCN2C(=O)[C@@H](Cc2ccccc2)NC(=O)[C@H](C)NC(=O)[C@H](CCCNC(=N)N)NC(=O)[C@H](C(C)C)NC(=O)[C@H](CC(C)C)NC(=O)[C@@H](Cc2ccccc2)NC1=O [XQ52, Cyclo (LfLVRAfPVR)] (cyclo(A[dF]PVRL[dF]LVR)) | 0 | – | – | –
2 | CC(C)C[C@@H]1NC(=O)[C@H](CCCNC(=N)N)NC(=O)[C@H]([C@@H](C)O)NC(=O)[C@@H]2CCCN2C(=O)[C@@H](Cc2ccccc2)NC(=O)[C@H](CC(C)C)NC(=O)[C@H](CCCNC(=N)N)NC(=O)[C@H]([C@@H](C)O)NC(=O)[C@H](C)NC(=O)[C@@H](Cc2ccccc2)NC1=O [XQ35, Cyclo (LfATRLfPTR)] (cyclo(ATRL[dF]PTRL[dF])) | 0 | 106.53% and 106.617% | 106 | –
3 | CC(C)C[C@@H]1NC(=O)[C@H](CCCNC(=N)N)NC(=O)[C@H](C(C)C)NC(=O)[C@@H]2CCCN2C(=O)[C@@H](Cc2ccccc2)NC(=O)[C@H](CC(C)C)NC(=O)[C@H](CC(=O)O)NC(=O)[C@H](C(C)C)NC(=O)[C@H](CCCNC(=N)N)NC(=O)[C@@H](Cc2ccccc2)NC1=O [XQ76, Cyclo (LfRVDLfPVR)] (cyclo(DL[dF]PVRL[dF]RV)) | 0 | – | – | –
4 | CC(C)C[C@@H]1NC(=O)[C@H](CCCNC(=N)N)NC(=O)[C@H](C(C)C)NC(=O)[C@@H]2C[C@@H](O)CN2C(=O)[C@@H](Cc2ccccc2)NC(=O)[C@H](CC(C)C)NC(=O)[C@H](CCCNC(=N)N)NC(=O)[C@H](C(C)C)NC(=O)[C@@H]2CCCN2C(=O)[C@@H](Cc2ccccc2)NC1=O [XQ6, Cyclo (LfPVRLf(Hyp)VR)] (cyclo([Hyp]VRL[dF]PVRL[dF])) | 32 | 68.1038% and 66.5986% | 66.6 | –
5 | CC(C)C[C@@H]1NC(=O)[C@H](CCCNC(=N)N)NC(=O)[C@H](C(C)C)NC(=O)[C@@H]2CCCN2C(=O)[C@@H](Cc2ccccc2)NC(=O)[C@H](CC(C)C)NC(=O)[C@H](CCCNC(=N)N)NC(=O)[C@H](C(C)C)NC(=O)[C@@H]2CCCN2C(=O)[C@@H](C)NC1=O [XQ1, Cyclo (LaPVRLfPVR)] (cyclo(L[dA]PVRL[dF]PVR)) | 23 | 76.5914% and 76.7702% | 76.9 | –
6 | Cyclo (LfRADAfPTR) [XQ80] | – | – | – | 0
7 | CC(C)C[C@@H]1NC(=O)[C@H](C)NC(=O)[C@H](CCCNC(=N)N)NC(=O)[C@@H]2CCCN2C(=O)[C@@H](Cc2ccccc2)NC(=O)[C@H](CC(C)C)NC(=O)[C@H](CCCNC(=N)N)NC(=O)[C@H](C(C)C)NC(=O)[C@@H]2CCCN2C(=O)[C@@H](Cc2ccccc2)NC1=O [XQ43, Cyclo (LfPRALfPVR)] (cyclo(AL[dF]PVRL[dF]PR)) | 23 | 77.1619% and 77.2258% | 76.3 | –
8 | CC(C)C[C@@H]1NC(=O)[C@H](CCCN)NC(=O)[C@H](C(C)C)NC(=O)[C@@H]2CCCN2C(=O)[C@@H](Cc2ccccc2)NC(=O)[C@H](CC(C)C)NC(=O)[C@H](CCCN)NC(=O)[C@H](C(C)C)NC(=O)[C@@H]2CCCN2C(=O)[C@@H](Cc2ccccc2)NC1=O [XQ39, Cyclo (LfPV(Orn)LfPV(Orn))] (cyclo(V[Orn]L[dF]PV[Orn]L[dF]P)) | 3 | 96.3833% and 97.8523% | 97.2 | –
9 | CC(C)C[C@@H]1NC(=O)[C@H](CCCNC(=N)N)NC(=O)[C@H](C(C)C)NC(=O)[C@@H]2C[C@@H](O)CN2C(=O)[C@@H](Cc2ccccc2)NC(=O)[C@H](CC(C)C)NC(=O)[C@H](CCCNC(=N)N)NC(=O)[C@H](C(C)C)NC(=O)[C@@H]2C[C@@H](O)CN2C(=O)[C@@H](Cc2ccccc2)NC1=O [XQ12, Cyclo (Lf(Hyp)VRLf(Hyp)VR)] (cyclo([Hyp]VRL[dF][Hyp]VRL[dF])) | 7 | 93.4229% and 93.3308% | 93.7 | –
10 | Cyclo (LwPVD(Nle)f(K(Dde))IR) [XQ75] | – | – | – | 0
11 | CC(C)C[C@@H]1NC(=O)[C@H](CCCNC(=N)N)NC(=O)[C@H](C(C)C)NC(=O)[C@H](C)NC(=O)[C@@H](Cc2ccccc2)NC(=O)[C@H](C)NC(=O)[C@H](CC(=O)O)NC(=O)[C@H](C(C)C)NC(=O)[C@@H]2CCCN2C(=O)[C@@H](Cc2ccccc2)NC1=O [XQ57, Cyclo (LfPVDAfAVR)] (cyclo(AVRL[dF]PVDA[dF])) | 0 | – | – | –
12 | CC(C)C[C@@H]1NC(=O)[C@H](CCCNC(=N)N)NC(=O)[C@H](C(C)C)NC(=O)[C@@H]2CCCN2C(=O)[C@@H](C)NC(=O)[C@H](C)NC(=O)[C@H](CCCNC(=N)N)NC(=O)[C@H](C(C)C)NC(=O)[C@@H]2CCCN2C(=O)[C@@H](Cc2ccccc2)NC1=O [XQ14, Cyclo (AaPVRLfPVR)] (cyclo(A[dA]PVRL[dF]PVR)) | 4 | 96.1851% and 95.3459% | 96 | –
13 | CC(C)C[C@@H]1NC(=O)[C@H](CCCNC(=N)N)NC(=O)[C@H](C(C)C)NC(=O)[C@@H]2CCCN2C(=O)[C@@H](Cc2ccccc2)NC(=O)[C@H](C)NC(=O)[C@H](CCCNC(=N)N)NC(=O)[C@H](C(C)C)NC(=O)[C@@H]2CCCN2C(=O)[C@@H](CC(C)C)NC1=O [XQ53, Cyclo (LlPVRAfPVR)] (cyclo(A[dF]PVRL[dL]PVR)) | 0 | – | – | –
14 | CC(C)C[C@@H]1NC(=O)[C@H](CCCNC(=N)N)NC(=O)[C@H](C(C)C)NC(=O)[C@@H]2CCCN2C(=O)[C@@H](Cc2ccccc2)NC(=O)[C@H](CC(C)C)NC(=O)[C@H](CCCNC(=N)N)NC(=O)[C@H](C(C)C)NC(=O)[C@@H]2CCCN2C(=O)[C@@H](Cc2ccccc2)NC1=O [XQ38, Cyclo (LfPVRLfPVR)] (cyclo(L[dF]PVRL[dF]PVR)) | 0 | 112.545% and 112.328% | 113 | –
15 | CC(C)C[C@@H]1NC(=O)[C@H](CCCNC(=N)N)NC(=O)[C@H](C(C)C)NC(=O)[C@@H]2CCCN2C(=O)[C@@H](Cc2ccccc2)NC(=O)[C@H](C)NC(=O)[C@H](CCCNC(=N)N)NC(=O)[C@H](C)NC(=O)[C@@H]2CCCN2C(=O)[C@@H](Cc2ccccc2)NC1=O [XQ15, Cyclo (AfPVRLfPAR)] (cyclo(ARA[dF]PVRL[dF]P)) | 0 | 110.709% and 110.469% | 110 | –
16 | Cyclo (AaRVDLfPVR) [XQ87] | – | – | – | 0
17 | CC(C)C[C@@H]1NC(=O)[C@H](C)NC(=O)[C@H](C(C)C)NC(=O)[C@@H]2CCCN2C(=O)[C@@H](CCCNC(=N)N)NC(=O)[C@H](CC(C)C)NC(=O)[C@H](CCCNC(=N)N)NC(=O)[C@H](C(C)C)NC(=O)[C@@H]2CCCN2C(=O)[C@@H](Cc2ccccc2)NC1=O [XQ55, Cyclo (LrPVALfPVR)] (cyclo(AL[dF]PVRL[dR]PV)) | 0 | – | – | –
18 | CC(C)C[C@@H]1NC(=O)[C@H](CCCNC(=N)N)NC(=O)[C@H]([C@@H](C)O)NC(=O)[C@@H]2C[C@@H](O)CN2C(=O)[C@@H](Cc2ccccc2)NC(=O)[C@H](CC(C)C)NC(=O)[C@H](CCCNC(=N)N)NC(=O)[C@H]([C@@H](C)O)NC(=O)[C@@H]2CCCN2C(=O)[C@@H](Cc2ccccc2)NC1=O [XQ33, Cyclo (Lf(Hyp)TRLfPTR)] (cyclo([Hyp]TRL[dF]PTRL[dF])) | 2 | 98.2995% and 98.5649% | 97.1 | –
19 | CC(C)C[C@@H]1NC(=O)[C@H](CC(=O)O)NC(=O)[C@H](C(C)C)NC(=O)[C@@H]2CCCN2C(=O)[C@@H](Cc2ccccc2)NC(=O)[C@H](C)NC(=O)[C@H](CCCNC(=N)N)NC(=O)[C@H](C)NC(=O)[C@@H]2CCCN2C(=O)[C@@H](Cc2ccccc2)NC1=O [XQ58, Cyclo (AfPVDLfPAR)] (cyclo(ARA[dF]PVDL[dF]P)) | 0 | – | – | –
20 | CC(C)C[C@@H]1NC(=O)[C@H](C)NC(=O)[C@H](C(C)C)NC(=O)[C@@H]2CCCN2C(=O)[C@@H](Cc2ccccc2)NC(=O)[C@H](CC(C)C)NC(=O)[C@H](CCCNC(=N)N)NC(=O)[C@H](C(C)C)NC(=O)[C@H](CCCNC(=N)N)NC(=O)[C@@H](Cc2ccccc2)NC1=O [XQ45, Cyclo (LfRVRLfPVA)] (cyclo(AL[dF]RVRL[dF]PV)) | 0 | 110.841% and 109.702% | 115 | –

From PMC10545747, “Development of cyclopeptide inhibitors of cGAS targeting protein-DNA interaction and phase separation” (Nature Communications, 2023)
